The subject of series [1] is tau. Kind of series: Tau phosphorylation (Western blots, immunofluorescence) in mouse hippocampal primary neurons. It counts as cell-based. As to the method: Mouse hippocampal neuronal cultures were prepared from d 18 embryos as previously described (1). Briefly, C57BL/6 pregnant female mice from Charles River Laboratories were killed by cervical dislocation. All studies were performed in accordance with the recommendations in the Guide for the Care and Use of Laboratory Animals of the National Institutes of Health (2). The protocol was approved by Institutional Animal Care and Use Committee of the New York Institute for Basic Research in Developmental Disabilities. All surgeries were performed under anesthesia, and all efforts were made to minimize suffering. Embryos were removed and placed in cold Hibernate A (BrainBits, LLC), and all the following steps were performed in ice-cold Hibernate A, under a stereoscopic (dissection) microscope placed in a laminar flow hood. Fetal brains were removed carefully, and forebrains were separated. The hippocampus, including the cortex surrounding the area of the hippocampus, was dissected and cut into small pieces using microsurgical scissors. The cut tissue was transferred with number 5 forceps to 15-mL tubes containing 0.1% trypsin in Versene (Invitrogen Life Technologies) and was incubated for 15 min at 37° C. followed by inactivation with 10% (vol/vol) FBS in Neurobasal complete medium (Neurobasal Medium supplemented with 2×B-27, 0.30% glutamine, 10% FBS, and penicillin/streptomycin, 0.1 mg/mL and 0.1 U/mL respectively). After 3 d, the cells were grown with Neurobasal medium supplemented with only 2×B-27. This procedure typically yields cultures that contain 70-75% neurons and […] supporting cells (3). The cultures were maintained at 37° C. in a humidified atmosphere containing 5% CO2 for 8 or 9 d before experimentation. Every 72 h, the medium was replaced with fresh medium. All medium components were purchased from Invitrogen. The neuronal transfection was performed using Lipofectamine LTX and Plus reagent at 5 d in vitro according to the manufacturer's instructions (Invitrogen). The cells were processed for immunofluorescent staining 3 d after transfection.
(§1) Protein was fractionated by 10% SDS/PAGE, transferred to PVDF membrane, and then blocked with 5% skim milk for 1 h at room temperature. The membrane was probed with anti-IPP2A (5G6, 1:1, 500) (7), anti-I2P2A (10E7, 1:1, 600) (7), anti-tau ˜92e; 1:5,000) (8), anti-tau (R134d; 1:5 000) (9), anti-tau pSer^262/^356 (12E8; 1:500) (10, anti-tau pSer^199, anti-tau pThr^205, anti-tau pThr^212, and pSer^396 (1:1,000) (Biosource), anti-GAPDH (1:2,000) (Santa Cruz Biotechnology), anti-PP2Ac (1:10 000) (BD Transduction Lab), anti pY^307-PP2A and anti-DML^309-PP2A (1:1,000) (Millipore), anti-GSK-3(α/β), anti-pS^9-GSK-3 β, anti-ERK1/2, anti-pT^202/Y^204-ERK1/2, anti-MEK1/2, anti-p9^17/221-MEK1/2, anti-CAMKII, anti-pT^286-CAMKII, anti-p70 S6 kinase, anti-pT^389-p70 S6 kinase, anti-SAPK/JNK, and anti-pT^183/Y^185-SAPK/JNK (1:1,000) (Cell Signaling Technology). The membrane then was incubated with HRP-conjugated secondary antibody (Jackson ImmunoResearch). The protein bands were detected with the enhanced chemiluminescence reagents (Thermo Scientific). Band intensity was measured by Multi-Gauge V3 software (Fuji Photo Film).
Primary hippocampal neuronal cultures grown on four-chamber glass slides were fixed in cold 4% (wt/vol) paraformaldehyde for 15 min and permeabilized in 0.1% Triton X-100 for 15 min followed by incubation in 5% goat serum to block the nonspecific staining for 1 h. The cells then were probed with 12E8 (1:200) overnight at 4° C. Alexa-488-conjugated anti-mouse secondary antibody (1:500) (Jackson Laboratory) was used for fluorescent labeling. The cells on slides were rinsed with PBS, mounted with Fluorogel (Electron Microscopy Sciences) and examined under laser confocal microscope (Nikon Eclipse 90i). […]

The test system of another series is PP2A. Kind of series: i.c.v. infusion of BMAA in neonatal rats: PP2Ac Tyr307 phosphorylation and PP2A activity. It counts as in vivo, rat. Particulars: i.c.v. BMAA 1.3 μmol. The method, then: (§2) Wistar rats were bred and maintained under standard environmental conditions (12-h light/dark cycles, 22° C.) and were allowed free access to food and water. The animal experiments were carried out in strict compliance with protocols approved by the Animal Welfare Committee of New York State Institute for Basic Research in Developmental Disabilities. On postnatal d 2 (PND2), pups were individually cryo-anesthetized on ice, and 2 μL of 1.3 μmol BMAA in PBS was injected into lateral ventricle using a 10-μL Hamilton syringe (Hamilton Syringe Co.). Control animals were injected with PBS in an identical manner. After infusion of BMAA, rats were killed within 1, 24, 48, 72, or 96 h, and the brains were used for Western blots and PP2A activity assays.
PP2A activity was assayed with homogenate of rat brain slices using the phosphatase ELISA described previously (5). Briefly, 96-well plates were precoated with a 17-aa phosphopeptide corresponding to tau amino acids 194-207 in which […] was replaced with phosphoserine and to which KKK were added at the C terminus (coating buffer, 35 mM NaHCO3). After overnight blocking with a protein-free blocking solution (Pierce), the enzymatic reaction was performed by adding 2 μg of cell lysate protein in 60 μL of reaction buffer [50 mM TrisHCl (pH 7.0), 2 mM MnCl2, 0.1 mg/mL BSA, 20 mM (β-mercaptoethanol] at 30° C. for 30 min (in the presence or absence of 15 nM of okadaic acid) in a moist chamber. The reaction was stopped by adding 150 μL of Pierce blocking solution containing 50 mM NaF, followed by an overnight incubation with monoclonal antibody Tau-1, which recognizes tau unphosphorylated at Ser^198, Ser^199, and Ser^202. HRP-conjugated secondary antibody treatment was for 60 min at room temperature. Finally 75 μL of 3,3′,5,5′-Tetramethylbenzidine substrate reagent (Sigma) was added, and the colorimetric development was measured using a microtiter plate reader at a wavelength of 650 nm.
Protein was fractionated by 10% SDS/PAGE, transferred to PVDF membrane, and then blocked with 5% skim milk for 1 h at room temperature. […] The protein bands were detected with the enhanced chemiluminescence reagents (Thermo Scientific). Band intensity was measured by Multi-Gauge V3 software (Fuji Photo Film).

For series [2], the system named is tau. Kind of series: i.c.v. infusion of BMAA in neonatal rats: hyperphosphorylation of tau. It counts as in vivo, rat. Conditions: i.c.v. BMAA 1.3 μmol. The method, then:
as §2, §1

A further series concerns mixed cortical cultures. Particulars: injury induced by amyloid-β, 1-methyl-4-phenylpyridinium or methylmercury; cited from earlier work.
Setting [3] is: BMAA 1 mM vs controls, Western blots, P<0.01.
The mark [4] stands for this setting: BMAA 1 mM vs controls, Western blots, P<0.05.

As to `CNC[C@H](N)C(=O)O` [BMAA, β-N-methylamino-L-alanine], the “hyperphosphorylation of tau at Ser396” value in the series with tau [1] (BMAA 1 mM vs controls, Western blots) was “not at Ser^396”. Also, in the series on tau [1] (setting [3]), the “hyperphosphorylation of tau at Ser262/356 (12E8 site)” value was “significantly increased” and the “hyperphosphorylation of tau at Thr205” value was “significantly increased”. Besides, in the series on tau [1] (setting [4]), the “hyperphosphorylation of tau at Ser199” value is on record as “significantly increased” and the “hyperphosphorylation of tau at Thr212” value is “significantly increased”. For the same compound, the “expression of tau phosphorylated at Ser262/356” value with tau [1] (immunohistofluorescent analysis, 12E8 staining, BMAA-treated primary neurons) is “increased”. In addition, in the series with PP2A, the “PP2A activity in rat brain” value was “decreased”, the “time at which the decrease in PP2A activity was most significant” value turned out to be 48 h and the “time by which pTyr307-PP2Ac decreased to a normal level” value is recorded as 72-96 h. Also, the “level of phosphorylation of PP2Ac at Tyr307 in rat brains” value in the series with PP2A (for 24-48 h) was “increased markedly”. Besides, in the series on tau [2], the “time of peak hyperphosphorylation of tau at Ser262/356” value was 24 to 48 h, the “time of peak hyperphosphorylation of tau at Thr212” value is 24 to 48 h, the “time of peak phosphorylation of tau at Ser199” value was 72 to 96 h and the “time of peak phosphorylation of tau at Ser396” value was in the range of 72 to 96 h. Moreover, the “time of peak phosphorylation of tau at Thr205” value in the series with tau [2] lay in the range of 72 to 96 h. In addition, the “BMAA concentration potentiating neuronal injury” value in the series on mixed cortical cultures was 10 µM.
